Here are results for 6 compounds from US20250230131A1, “NOVEL IONIZABLE LIPID AND LIPID NANOPARTICLE COMPOSITION USING SAME” (MediciBIO Co., Ltd, priority 2022, published 2025).

The structures appear in SMILES notation.

One data set has as its system HeLa cells. Briefly: Intracellular gene delivery efficacy of FLuc mRNA-LNP (luciferase expression). It counts as cell-based, human. The note with it: 0.25 μg/ml encapsulated FLuc mRNA, 6 hours. Here is the method:
To determine the intracellular gene delivery efficacy of lipid nanoparticles, lipid nanoparticles encapsulated with FLuc mRNA(Fluc mRNA-LNP) were used. To evaluate the gene delivery efficacy, HeLa cells (Korea Cell Line Bank, Seoul), human cervical cancer cell lines expressing low-density lipoprotein (LDL) receptors on the cell surface, were used, and cultured with the MEM medium containing 10% fetal bovine serum and penicillin/streptomycin at 37° C. in the presence of 5% CO2. HeLa cell lines were seeded at 2×10^4 cells per well in a 96-well plate, and after 16˜24 hours, the cells were treated with lipid nanoparticles at a concentration of 0.25 μg/ml based on encapsulated mRNA, in a total volume of 100 μl MEM medium per well in the absence or the presence of 10% fetal bovine serum (FBS).
To measure the expression of intracellular luciferase after FLuc mRNA delivery by lipid nanoparticles, the cells were washed with PBS after 6 hours of treatment. Then, and 100 μl of Glo-Lysis Buffer (Promega, WI, USA) was added to lyse the cells at room temperature for 5 minutes. The lysed cells were added with 100 μl of Steady-Glo™ Luciferase Assay solution (Promega) in a 1:1 ratio, left at room temperature for 5 minutes, and then transferred to a 96-well white plate. Luminescent values were detected using a GloMax Discover microplate reader (Promega). Recombinant luciferase (Promega) was used as the standard material to generate the calibration curve, which was used to determine the luciferase concentration (pg/ml) in the samples.

The nature of data set [1]: Gene encapsulation efficiency, Quant-iT Ribogreen RNA Reagent and Kit. The note with it: lipid nanoparticles, TE buffer vs 2% Triton-TE buffer. Format: physicochemical. Here is the method: To determine a gene encapsulation efficiency of lipid nanoparticles, the Quant-iT™ Ribogreen™ RNA Reagent and Kit was used. A stock solution for the calibration curve was prepared by taking 5 μL of the ribosomal RNA standard (100 μg/mL in TE buffer) and diluting it with either 245 μL of TE buffer or 0.4% Triton-TE buffer, respectively. Aliquots of 2, 5, 10, 25, and 50 μL of the stock solution were taken, diluted with TE buffer or 0.4% Triton-TE buffer to achieve a total volume of 100 μL, and then mixed with 100 μL of Quant-iT™ Ribogreen™ RNA Reagent; the fluorescence intensity (excitation 475 nm and emission 500˜550 nm) was measured to create a calibration curve. A volume of 5 μL of the nanoparticle solution prepared in Example 2 was taken and diluted with 245 μL of TE buffer (10 mM Tris-HCl, 1 mM EDTA, pH 7.5 in DEPC-treated water). After 50 μL of TE buffer or 50 μL of 2% Triton-TE buffer was added to 50 μL of the diluted nanoparticle solution, respectively, the mixture was incubated at 37° C. for about 10 minutes. Afterwards, 40 μL of each mixture was transferred to a microplate, and 60 μL of TE buffer and 100 μL of Quant-iT™ Ribogreen™ RNA Reagent were added sequentially to measure the fluorescence intensity. After calculating the gene dosage (T0) in the TE buffer and the gene dosage (T2) in the 2% Triton-TE buffer by substituting the measured fluorescence intensity into the calibration curve, the gene encapsulation efficiency was calculated using the following Mathematical Equation 1.

Data set [2] is described as follows: Size (diameter) and PDI of lipid nanoparticles by Dynamic Light Scattering. Format: physicochemical. To be noted: lipid nanoparticles of the ionizable lipid; diluted with PBS to mRNA 1 μg/mL; DLS. Here is the method: (§1) The size and surface charge of lipid nanoparticles according to the ionizable lipid prepared in Example 1 were measured. To measure the size of the lipid nanoparticles, dilution was conducted using PBS to reach the concentration of mRNA contained in each lipid nanoparticle to 1 μg/mL, and Dynamic Light Scattering (DLS) of Malvern Zetasizer Nano (Malvern Instruments, UK) was applied to measure the diameter and a polydispersity index (hereinafter referred to as PDI) of lipid nanoparticles. In addition, in order to measure the surface charge of lipid nanoparticles, dilution was conducted using PBS to reach the concentration of mRNA contained in each lipid nanoparticle to 1 μg/mL, and the surface charge (zeta potential) was measured using the same equipment as above.

Data set [3] is described as follows: Surface charge (zeta potential) of lipid nanoparticles. Format: physicochemical. To be noted: diluted with PBS to mRNA 1 μg/mL. Here is the method:
as §1

Data set [4] has as its system mice of the C57BL/6 lineage. The data set is described as follows: Gene delivery efficiency in vivo, intravenous injection, liver luciferase expression. To be noted: C57BL/6 mice, after 4 hours. Here is the method:
(§2) In order to identify the gene delivery efficacy and distribution of lipid nanoparticles in vivo, lipid nanoparticles were injected into 7-week-old mice of the C57BL/6 lineage either intravenously or intramuscularly in the thigh. The liver was extracted in the case of intravenous injection and the organs including the femoral muscle were extracted in the case of intramuscular injection by sacrificing the mice after 4 hours.
(§3) To determine the level of luciferase expression in tissue samples, the tissue sections were weighed and transferred to a tube containing 3 mm metal beads, and a homogenized by adding 500 μl of Glo-Lysis Buffer (Promega) per 50 mg of tissue. The supernatant from the centrifuged homogenates was collected and diluted with the Glo-Lysis Buffer to an appropriate ratio. The diluted homogenates and the Steady-Glo Luciferase Assay solution were then mixed in a 1:1 ratio, with 50 μl of each. After a 5-minute incubation, the luminescence values of luciferase were measured using the same method as described in Example 3-1, and the expression levels (ng/g tissue) of luciferase were calculated.

For data set [5], the system named is mice of the C57BL/6 lineage. The data set is described as follows: Gene delivery efficiency in vivo, intramuscular injection in the thigh, muscle luciferase expression. The note with it: femoral muscle, C57BL/6 mice, after 4 hours. Here is the method:
as §2, §3

`CCCCCCCCC(CCCCCC)C(=O)OCCCCCCN(CCCCCCOC(=O)C(CCCCCC)CCCCCCCC)CCC1CCNCC1` (centres unmarked) [Compound 1, ((2-(piperidin-4-yl)ethyl)azanediyl)bis(hexane-6,1-diyl) bis(2-hexyldecanoate)]: the “Luciferase expression level (Mean ± SD)” value in the data set with HeLa cells (10% FBS) was 16,060 ± 102 pg/ml. Also, the “Luciferase expression level (Mean ± SD)” value in the data set on HeLa cells (w/o FBS) is given as 16,685 ± 646 pg/ml. Moreover, in data set [1], the Gene encapsulation efficiency is listed as 99.7%. In data set [2], this compound displayed a PDI of 0.09 and a Particle size of 121 nm. Also, the “Surface Charge” value in data set [3] is reported as “+29.1 mV”.
`CCCCCCCCC(CCCCCC)C(=O)OCCCCCCN(CCCCCCOC(=O)C(CCCCCC)CCCCCCCC)CCN1CCNCC1` (centres unmarked) [Compound 2, ((2-(piperazin-1-yl)ethyl)azanediyl)bis(hexane-6,1-diyl) bis(2-hexyldecanoate)]: the “Luciferase expression level (Mean ± SD)” value with HeLa cells (10% FBS) is 8,492 ± 2,375 pg/ml. The “Luciferase expression level (Mean ± SD)” value with HeLa cells (w/o FBS) is given as 15,270 ± 2,273 pg/ml. For the same compound, the Gene encapsulation efficiency in data set [1] is reported as 94.9%. In data set [2], this compound gave a PDI of 0.12 and a Particle size of 106 nm. Also, the “Surface Charge” value in data set [3] is on record as “+28.1 mV”.
In data set [1], `CCCCCCCCC(CCCCCC)C(=O)OCCCCCCN(CCCCCCOC(=O)C(CCCCCC)CCCCCCCC)Cc1ccc(N)cc1` (centres unmarked) [Compound 3, ((4-aminobenzyl)azanediyl)bis(hexane-6,1-diyl) bis(2-hexyldecanoate)] returned a Gene encapsulation efficiency of 93.8%. In data set [2], the PDI turned out to be 0.18 and the Particle size is recorded as 78 nm. For the same compound, in data set [3], the “Surface Charge” value is listed as −1.4 mV.
The compound `CCCCCCCCC(CCCCCC)C(=O)OCCCCCCN(CCCCCCOC(=O)C(CCCCCC)CCCCCCCC)CCc1ccc(N)nc1` (centres unmarked) [Compound 4, ((2-(6-aminopyridin-3-yl)ethyl)azanediyl)bis(hexane-6,1-diyl) bis(2-hexyldecanoate)] came in with a Gene encapsulation efficiency in data set [1] of 78.2%. Besides, the “Luciferase expression level (Mean ± SD)” value in data set [4] is reported as 6,844 ± 2,052 ng/g. Besides, in data set [2], the PDI came to 0.13 and the Particle size stood at 84 nm. In data set [3], the “Surface Charge” value is “+2.0 mV”.
The compound `CCCCCCCCC(CCCCCC)C(=O)OCCCCCCN(CCCCCCOC(=O)C(CCCCCC)CCCCCCCC)CCCn1ccnc1C` (centres unmarked) [Compound 5, ((3-(2-methyl-1H-imidazol-1-yl)propyl)azanediyl)bis(hexane-6,1-diyl) bis(2-hexyldecanoate)] registered a Gene encapsulation efficiency in data set [1] of 93.5%. The “Luciferase expression level (Mean ± SD)” value in data set [4] was 2,582 ± 745 ng/g. In addition, in data set [2], the PDI was 0.08 and the Particle size amounted to 104 nm. Besides, the “Luciferase expression level (Mean ± SD)” value in data set [5] is 651 ± 158 ng/g. Moreover, in data set [3], the “Surface Charge” value was “+19.9 mV”.
On to `CCCCCCCCC(CCCCCC)C(=O)OCCCCCCN(CCCCCCOC(=O)C(CCCCCC)CCCCCCCC)CCCn1cc(C)nc1C` (centres unmarked) [Compound 6, ((3-(2,4-dimethyl-1H-imidazol-1-yl)propyl)azanediyl)bis(hexane-6,1-diyl)bis(2-hexyldecanoate)], for which the results for the “Luciferase expression level (Mean ± SD)” value in data set [4] and in data set [5] were 1,172 ± 99 ng/g and 358 ± 74 ng/g, respectively.
